Experiments:
Test in all cases: cell-based
LuxR [1] = target: T1, LuxR (Aliivibrio fischeri, UniProt P35327); parameters: species or system Vibrio fischeri; settings: for V. fischeri-LuxR Activation [%]: 200 μM ligand
T1 construct: a Δ-luxI derivative of V. fischeri ES114, in which the native lux operon behaves as the bioluminescent reporter; endogenous in cells; host or cells: V. fischeri ES114 (Δ-luxI)
Protocol: (§1) Luminescence assays. For agonism assays, an appropriate amount of AHL stock solution was added into a 96-well plate. An overnight culture of E. coli or V. fischeri was diluted 1:10 with appropriate media (LB plus 10 μg/mL tetracycline for E. coli; LBS for V. fischeri). A 200-μL portion of the diluted culture was added to each well of the plate. Plates were grown for 4-8 h with shaking (200 rpm; 30° C. for E. coli and RT for V. fischeri). Luminescence was measured using a multilabel plate reader and normalized to cell density. […] All assays were performed in triplicate. Graphpad Prism software was used to calculate IC50 and EC50 values.
(§2) Vibrio fischeri assay procedures. […] An overnight culture of V. fischeri ES114 (WT, Δ-luxI or Δ-luxR) was diluted 1:10 with LBS medium. A-200 μL portion of the diluted culture was added to each well of the plate. Plates were grown at RT with shaking (200 rpm) until the OD600=0.35-0.4 (4-6 h). Luminescence then was measured and normalized to cell density per well. […] All assays were performed in triplicate. IC50 and EC50 values were calculated using GraphPad Prism software using a sigmoidal curve fit.
(§3) V. fischeri reporter gene assay protocols. […] An overnight culture of V. fischeri ES114 (D-luxI) was diluted 1:10 with LBS medium. A 200-μL portion of the diluted culture was added to each well of the multititer plate. Plates were grown at RT with shaking (200 rpm) until the OD600=0.35-0.4 (4-6 h). Luminescence then was measured and normalized to cell density per well.
(§4) Dose response reporter gene assays. […] IC50 and EC50 values were calculated using GraphPad Prism software (v. 4.0) using a sigmoidal curve fit.
(§5) V. fischeri reporter gene assay protocols. […] An overnight culture of V. fischeri ES114 (Δ-luxI) was diluted 1:10 with LBS medium. A200 μL portion of the diluted culture was added to each well of the multititer plate. Plates were incubated at RT until the OD600=0.35-0.4 (4-6 h). Luminescence then was measured and normalized to cell density per well.
as §4

TraR = target: T2, TraR (Agrobacterium tumefaciens, UniProt P33905); settings: for A. tumefaciens-TraR Activation [%]: 10 μM ligand; for A. tumefaciens-TraR Inhibition [%]: 10 μM synthetic ligand against 100 nM OOHL
T2 construct: These strains lack their AHL synthase (I) genes, but retain their native R genes; endogenous in cells; host or cells: A. tumefaciens WCF47 (Δ-traI) with PtraI-lacZ plasmid pCF372
T2 sequence (P33905 whole entry): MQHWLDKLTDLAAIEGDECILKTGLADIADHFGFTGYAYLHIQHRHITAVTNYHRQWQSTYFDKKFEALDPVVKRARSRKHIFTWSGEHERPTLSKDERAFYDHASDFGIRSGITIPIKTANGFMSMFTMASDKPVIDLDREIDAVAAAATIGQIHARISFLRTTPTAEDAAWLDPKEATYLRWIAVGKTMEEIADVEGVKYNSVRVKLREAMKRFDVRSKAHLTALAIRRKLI
Protocol: A. tumefaciens reporter gene assay protocols. […] An overnight culture of A. tumefaciens WCF47 (pCF372) was diluted to an OD600 of 0.1 in fresh AB minimal medium containing 400 μg/mL octopine and 50 μg/mL streptomycin. A 200 μL-portion of the diluted culture was added to each well of the multititer plate containing AHLs. Plates were grown at 28° C. for 18-20 h in a rotary shaking incubator (200 rpm). The cultures were then assayed for β-galactosidase activity following the Miller assay method. Briefly, 200 μL aliquots of bacteria from each of the wells were added to wells of a polystyrene 96-well plate and the OD600 of each well was recorded. Next, 50 μL aliquots from each well were transferred to a solvent resistant 96-well plate containing 200 μL Z buffer, 8 μL CHCl3 and 4 μL 0.1% aq. sodium dodecylsulfate (SDS). This suspension was mixed via repetitive pipetting, after which the CHCl3 was allowed to settle. A 100-μL aliquot from each well was transferred to a fresh polystyrene 96-well plate, and 20 μL of substrate, o-nitrophenyl-β-D-galactopyranoside (ONPG, 4 μg/mL in phosphate buffer), was added at time zero. After the development of appropriate yellow color (ca. 15-35 min), the reaction was terminated by the addition of 50 μL of 1 M Na2CO3. Absorbance at 420 nm and 550 nm was measured for each well using a plate reader, and Miller units were calculated according to standard methods.
as §4
A. tumefaciens reporter gene assay protocols. […] An overnight culture of A. tumefaciens WCF47 (pCF372) was diluted 1:10 with fresh AB minimal medium containing 400 μg/mL octopine and 50 μg/mL streptomycin. A 200 μL portion of the diluted culture was added to each well of the multititer plate containing AHLs. Plates were incubated at 28° C. for 18-24 h. The cultures were then assayed for β-galactosidase activity following the Miller assay method. Briefly, 200 μL aliquots of bacteria from each of the wells were added to wells of a 96-well multititer plate, and the OD600 of each well was recorded. Next, 50 μL aliquots from each well were transferred to a solvent resistant 96-well multititer plate containing 200 μL Z buffer, 8 μL CHCl3 and 4 μL 0.1% aq. SDS. This suspension was mixed via repetitive pipetting, after which the CHCl3 was allowed to settle. A 100 μL aliquot from each well was transferred to a fresh 96-well multititer plate, and 20 μL of substrate, o-nitrophenyl-β-D-galactopyranoside (ONPG, 4 μg/mL in phosphate buffer), was added at time zero. After the development of appropriate yellow color (ca. 20-30 min), the reaction was terminated by the addition of 50 μL of 1 M Na2CO3. Absorbances at 420 nm and 550 nm were measured for each well using a plate reader, and Miller units were calculated according to standard methods.
as §4

LuxR [2] = target: T1, LuxR; format: cell-based, Vibrio fischeri; settings: for V. fischeri-LuxR Inhibition [%]: 5 μM synthetic ligand against 5 μM OHHL, V. fischeri ES114 (Δ-luxI), normalized to OHHL
Protocol: as §1, §2, §3, §4, §5, §4

LasR [3] = target: T3, LasR (Pseudomonas aeruginosa, UniProt P25084); settings: for E. coli-LasR Activation [%]: 5 μM ligand; for EC50: read-out: LasR EC50
T3 construct: expressed in transfected cells; host or cells: E. coli DH5α (pJN105L pSC11), arabinose-induced
T3 sequence (P25084 whole entry): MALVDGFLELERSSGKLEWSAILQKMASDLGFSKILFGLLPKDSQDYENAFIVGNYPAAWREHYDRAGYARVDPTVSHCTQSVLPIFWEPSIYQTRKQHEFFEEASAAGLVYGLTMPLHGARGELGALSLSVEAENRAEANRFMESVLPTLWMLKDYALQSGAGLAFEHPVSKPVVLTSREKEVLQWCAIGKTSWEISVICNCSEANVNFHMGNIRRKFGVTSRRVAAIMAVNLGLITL
Protocol: (§6) E. coli LasR reporter gene assay protocols. […] An overnight culture of E. coli DH5a (pJN105L pSC11) grown at 37° C. was subculture by diluting 1/10 in fresh LB medium containing 100 μg/mL ampicillin and 15 μg/mL gentamicin and shaking at 37° C. until OD600=0.3. Arabinose (4 mg/mL) was then added to induce the LasR promoter and a 200 μL-portion of this culture was added to each well of the multititer plate containing AHLs. Plates were grown at 37° C. for 2 hours in a rotary shaking incubator (200 rpm; OD600=0.45). The cultures were then assayed for activity following the identical β-galactosidase assay protocols used in the A. tumefaciens reporter gene assays.
as §4
(§7) E. coli LasR reporter gene assay protocols. […] An overnight culture of E. coli DH5α (pJN105L pSC11) was diluted 1:10 with fresh LB medium containing 100 μg/mL ampicillin and 15 μg/mL gentamicin. This sub-culture was incubated at 37° C. until OD600=0.3 (4-6 h). Arabinose (4 mg/mL) was then added to induce the LasR promoter, and a 200 μL portion of this culture was added to each well of the multititer plate containing AHLs. Plates were incubated at 37° C. until OD600=0.45 (4-6 h). The cultures were then assayed for LasR activity following the identical β-galactosidase assay protocols used in the A. tumefaciens reporter gene assays (see above).
as §4

LasR [4] = target: T3, LasR; format: cell-based; settings: for E. coli-LasR Inhibition [%]: 5 μM synthetic ligand against 7.5 nM OdDHL
Protocol: as §6, §4, §7, §4

[5] = V. fischeri ES114 (Δ-luxI), normalized to OHHL
[6] = A. tumefaciens WCF47 (pCF372), normalized to OOHL
[7] = E. coli DH5α (pJN105L pSC11), normalized to OdDHL

T1 sequence (P35327 whole entry): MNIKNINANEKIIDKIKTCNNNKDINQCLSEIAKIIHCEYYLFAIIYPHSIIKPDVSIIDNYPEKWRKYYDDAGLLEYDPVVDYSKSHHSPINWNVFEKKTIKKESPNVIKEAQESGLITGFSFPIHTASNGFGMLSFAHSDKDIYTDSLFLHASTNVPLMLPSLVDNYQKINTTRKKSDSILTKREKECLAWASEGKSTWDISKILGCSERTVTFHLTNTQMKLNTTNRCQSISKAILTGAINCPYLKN

Compound	V. fischeri-LuxR Activation [%] (LuxR [1]; [5])	A. tumefaciens-TraR Activation [%] (TraR; [6])	A. tumefaciens-TraR Inhibition [%] (TraR; [6])	V. fischeri-LuxR Inhibition [%] (LuxR [2])	E. coli-LasR Activation [%] (LasR [3]; [7])	E. coli-LasR Inhibition [%] (LasR [4]; [7])	other results
O=C(/C=C/c1ccccc1)N[C@H]1CCOC1=O [A19]	3	3	7	48	2	22	
CCCCCCCCCCCCCCCC(=O)N[C@H]1CCOC1=O [A6]	2	0	0	27	11	5	
O=C(Cc1ccc(C(F)(F)F)cc1)N[C@H]1CCOC1=O [B23, 4-trifluoromethyl PHL]				78			activation at 200 µM (LuxR [1]; read-out: V. fischeri-LuxR Activation [%], 200 μM ligand, V. fischeri ES114 (Δ-luxI), normalized to OHHL): 3%; activation at 10 µM (TraR; read-out: A. tumefaciens-TraR Activation [%]): 2%; inhibition at 10 µM (TraR; read-out: A. tumefaciens-TraR Inhibition [%], 10 μM synthetic ligand against 100 nM OOHL, A. tumefaciens WCF47 (pCF372), normalized to OOHL): 92%; IC50 (LuxR [2]; determined against 5 μM OHHL, read-out: LuxR IC50): 610 nM; activation at 5 µM (LasR [3]; read-out: E. coli-LasR Activation [%], 5 μM ligand, E. coli DH5α (pJN105L pSC11), normalized to OdDHL): 0%; inhibition at 5 µM (LasR [4]; read-out: E. coli-LasR Inhibition [%], 5 μM synthetic ligand against 7.5 nM OdDHL, E. coli DH5α (pJN105L pSC11), normalized to OdDHL): 26%
O=C(CC(=O)N[C@@H]1CCOC1=O)Cc1ccccc1 [B2]	3	2	50	46	84	−7	EC50 (LasR [3]): 540 nM
2-aminophenol analog of OdDHL [compound 7, reference compound]	1	0	9	3	18	4	
COc1ccccc1C1CCN(c2ccc(C=CC(=O)NC3CCOC3=O)cc2[N+](=O)[O-])CC1 (stereo not shown) [D18]	2	0	16	19	32	34	LasR: maximum induction value achievable (value in parentheses) (LasR [3]; at 200 μM ligand, relative to natural ligand): 32%; EC50 (LasR [3]): 470 nM
4-amino PHL [C21]							Activation (%) (LuxR [1]; V. fischeri-LuxR, Library C primary agonism screen): 3%; Activation (%) (TraR; A. tumefaciens-TraR, Library C primary agonism screen): 0%; Inhibition (%) (TraR; A. tumefaciens-TraR, Library C primary antagonism screen): 5%; Inhibition (%) (LuxR [2]; V. fischeri-LuxR, Library C primary antagonism screen): 12%; Activation (%) (LasR [3]; E. coli-LasR, Library C primary agonism screen): 0%; Inhibition (%) (LasR [4]; E. coli-LasR, Library C primary antagonism screen): 8%
O=C(Cc1c(F)c(F)c(F)c(F)c1F)N[C@H]1CCOC1=O [B19, pentafluoroaromatic PHL]	2	0	2	40	2	19	
COc1cc(C(C)=O)ccc1OCC(=O)N[C@H]1CCOC1=O [D16]	1	0	11	40	0	18	
O=C(Cc1ccccc1I)N[C@H]1CCOC1=O [B15]	7	0	5	63	0	17	
COc1ccc(CC(=O)N[C@H]2CCOC2=O)cc1 [B28]	3	0	26	57	0	16	
